Each compound was assayed against IgE-Tb binding to soluble IgE receptor FcεR1α (Y131A mutation) (Homo sapiens, UniProt P01854, N146Q/N252Q) (assay: In vitro FRET assay: inhibition of binding of IgE-Tb to receptor FcεR1α-Y131A-AF488). Conditions: read-out: FRET IC50 range.
Sequence of IgE-Tb binding to soluble IgE receptor FcεR1α (Y131A mutation) (P01854 whole entry N146Q/N252Q, looked up): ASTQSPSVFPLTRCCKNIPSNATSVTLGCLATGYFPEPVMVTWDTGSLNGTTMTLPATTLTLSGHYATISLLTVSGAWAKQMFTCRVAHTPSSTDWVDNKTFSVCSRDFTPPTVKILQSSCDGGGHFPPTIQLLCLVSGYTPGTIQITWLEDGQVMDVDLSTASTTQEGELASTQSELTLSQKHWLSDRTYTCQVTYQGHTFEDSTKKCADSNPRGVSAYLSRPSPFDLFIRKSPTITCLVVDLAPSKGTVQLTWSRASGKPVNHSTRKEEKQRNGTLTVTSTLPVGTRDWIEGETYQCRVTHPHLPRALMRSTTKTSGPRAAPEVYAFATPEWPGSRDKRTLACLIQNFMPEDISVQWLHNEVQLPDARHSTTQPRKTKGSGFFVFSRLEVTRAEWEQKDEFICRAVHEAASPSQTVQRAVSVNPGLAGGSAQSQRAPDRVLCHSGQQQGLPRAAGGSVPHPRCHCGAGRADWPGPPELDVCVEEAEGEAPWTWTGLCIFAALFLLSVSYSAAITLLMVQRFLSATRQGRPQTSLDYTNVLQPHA

SMILES | IC50 [nM]
CC(C)(F)CNS(=O)(=O)c1cc2c(c3cnc(C4CC4)cc13)CC[C@H]2NC(=O)NCC1CC1 (single isomer, unassigned) [Example 8, 1-(cyclopropylmethyl)-3-[(7R*)-3-cyclopropyl-5-[(2-fluoro-2-methylpropyl)sulfamoyl]-8,9-dihydro-7H-cyclopenta[h]isoquinolin-7-yl]urea] | 100 to 2000
CC(C)CNS(=O)(=O)c1cc2c(c3cnc(C4CC4)cc13)C(NS(C)(=O)=O)CC2 (stereo not shown) [Example 70, 3-cyclopropyl-9-(methanesulfonamido)-N-(2-methylpropyl)-8,9-dihydro-7H-cyclopenta[h]isoquinoline-5-sulfonamide] | 100 to 2000
CCNC(=O)N[C@@H]1CCc2c1cc(S(=O)(=O)NCC(C)C)c1cc(C3CC3)ncc21 (stereo in doubt) [Example 85, 1-ethyl-3-[(7R*)-3-cyclopropyl-5-(2-methylpropylsulfamoyl-8,9-dihydro-7H-cyclopenta[h]isoquinolin-7-yl]urea] | 10 to 50
CC(C)CNS(=O)(=O)c1cc2c(c3cnc(C4CC4)cc13)C(Nc1nncn1-c1cncc(F)c1)CC2 (stereo not shown) [Example 5, 3-cyclopropyl-9-[[4-(5-fluoro-3-pyridyl)-1,2,4-triazol-3-yl]amino]-N-isobutyl-8,9-dihydro-7H-cyclopenta[h]isoquinoline-5-sulfonamide] | 100 to 2000
CCNC(=S)NC1CCc2c1cc(S(=O)(=O)NCC(C)C)c1cc(C3CC3)ncc21 (stereo not shown) [Example 51, 1-[3-cyclopropyl-5-(2-methylpropylsulfamoyl)-8,9-dihydro-7H-cyclopenta[h]isoquinolin-7-yl]-3-ethylthiourea] | 100 to 2000
Cn1nnc(-c2ccc(NC3CCc4cc(S(=O)(=O)NCC(C)(C)F)c5cc(C6CC6)ncc5c43)cn2)n1 (stereo not shown) [Example 77, 3-cyclopropyl-N-(2-fluoro-2-methylpropyl)-9-[[6-(2-methyltetrazol-5-yl)pyridin-3-yl]amino]-8,9-dihydro-7H-cyclopenta[h]isoquinoline-5-sulfonamide] | 50 to 100
CC(C)CNS(=O)(=O)c1cc2c(c3cnc(C4CC4)cc13)C(NC(=S)Nc1cccnc1)CC2 (stereo not shown) [Example 74, 1-[3-cyclopropyl-5-(2-methylpropylsulfamoyl)-8,9-dihydro-7H-cyclopenta[h]isoquinolin-9-yl]-3-pyridin-3-ylthiourea] | 100 to 2000
